Reference: patent US8551963B2, “Imidazolothiazole compounds and methods of use thereof” (Ambit Biosciences Corporation, priority 2008, dated 2013)
Where “and” joins values, the source holds several entries; their conditions need not be identical. Identical values can stand only once. Entries after “also recorded” stand apart in the source; their conditions may differ. Like-named read-outs stand apart in the source and are kept apart here.

Experiments:
[1] = biological target: T1, CYP2C19 (Homo sapiens (Human), UniProt P33261); assay: Cyp enzyme inhibition assay in human liver microsomes, CYP2C19; assay type: in vitro ADME; conditions: CYP2C19, substrate mephenytoin
T1 sequence (P33261 whole entry): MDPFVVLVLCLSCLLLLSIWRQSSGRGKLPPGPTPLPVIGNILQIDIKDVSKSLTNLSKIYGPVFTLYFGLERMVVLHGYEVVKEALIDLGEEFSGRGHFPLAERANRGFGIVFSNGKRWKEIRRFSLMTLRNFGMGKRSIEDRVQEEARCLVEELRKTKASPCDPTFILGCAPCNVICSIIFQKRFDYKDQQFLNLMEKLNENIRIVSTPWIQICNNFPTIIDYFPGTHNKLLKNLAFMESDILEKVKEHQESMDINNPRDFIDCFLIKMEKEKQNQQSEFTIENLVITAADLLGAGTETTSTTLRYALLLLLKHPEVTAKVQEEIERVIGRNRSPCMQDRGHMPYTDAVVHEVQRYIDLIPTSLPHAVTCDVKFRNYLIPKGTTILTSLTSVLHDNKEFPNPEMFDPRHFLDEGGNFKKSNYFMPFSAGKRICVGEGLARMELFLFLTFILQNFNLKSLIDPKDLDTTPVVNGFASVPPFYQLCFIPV
Protocol: The ability of the compound I-1 to inhibit human metabolizing enzymes CYP3A4, CYP2C9, […], CYP2C19 and CYP1A2, was assessed using those enzymes found collectively in human liver microsomes. The test compound I-1 was prepared as a solution in DMSO or acetonitrile and plated in duplicate rows of a 96-well plate (Nunc) for a final assay concentration of 40 μM in 0.2% DMSO (or 2% acetonitrile) in the first column and serially diluted two-fold going down the row. A known selective inhibitor of a given CYP enzyme listed in Table 8 was selected as the appropriate positive control. For each CYP enzyme inhibition assay, an appropriate enzyme-substrate mixture was prepared to afford a final assay concentration of 75 mM KPO4/pH 7.4, 6.5 mM MgCl2, 0.25 mg/mL pooled male and female human liver microsome (CellzDirect lot HMMC-PL020) with the amounts of the appropriate substrate for each CYP enzyme assay given in Table 8. The enzyme-substrate mixture was added to columns 1 through 10 and column 11 served as a negative control with enzyme solution lacking substrate. A solution of NADPH (Calbiochem) was then added to all rows except for one where NADPH would be added after the incubation period, in order to detect NADPH-independent non-CYP-mediated metabolism. The plate was briefly vortexed and left to shake in a 37° C. water bath for 20 minutes. […]

[2] = test system: RS4;11 cells; assay: RS4;11 cellular proliferation assay (Cell Titer Blue); assay type: cell-based; conditions: Homo sapiens, RS4-11, 48 h, read-out: EC50 (50% inhibition of cellular proliferation)
Protocol: Cells were cultured overnight in low serum media with 0.5% FBS. The following day, cells were seeded on to a 96-well plate at 40,000 cells per well at a volume of 100 μL per well.
CTB reagent was thawed in a 37° C. water bath. 40 μL of CTB reagent was added to the plate containing the cells, and the cells were incubated with the reagent at 37° C. in 5% CO2 for 3 hours. The absorbance was measured at 560 nm (excitation)/590 nm (emission) using Spectramax Plus 384 Absorbance Microplate Reader by Molecular Devices.

[3] = biological target: FLT3 (D835Y) (Homo sapiens (Human), UniProt P36888, D835Y); assay: biochemical; assay type: binding
Protocol: Competition binding assays used herein were developed, validated and performed as described in Fabian et al., Nature Biotechnology 2005, 23, 329-336. Kinases were produced as fusions to T7 phage (See, Fabian et al. or WO04/015142) or alternatively, the kinases were expressed in HEK-293 cells and subsequently tagged with DNA for PCR detection (See, WO08/005,310). […] The liganded beads were blocked with excess biotin and washed with blocking buffer (SeaBlock (Pierce), 1% BSA, 0.05% Tween 20, 1 mM DTT) to remove unbound ligand and to reduce non-specific binding. […] Test compounds were prepared as 100× stocks in DMSO and rapidly diluted into the aqueous environment. DMSO was added to control assays lacking a test compound. […] The kinase concentration in the eluates was measured by quantitative PCR. Each kinase was tested individually against each compound. Kds were determined using eleven serial threefold dilutions.

[4] = biological target: T1, CYP2C19; assay: Time dependant inhibition in human liver microsomes, CYP2C19; assay type: in vitro ADME; conditions: CYP2C19, 10 μM, pre-incubation 0-30 minutes
Protocol: (§1) For each CYP isoform tested, 10 μM Compound I-1 was pre-incubated with pooled male and female human liver microsomes with NADPH in a 37° C. shaking water bath in duplicate to afford a final pre-incubation assay concentration of 100 mM KPO4/pH 7.4, 10 mM MgCl2, 2 mg/mL of human liver microsome (CellzDirect lot HLM HMMC-PL020) and 1 mM NADPH (Calbiochem). At each pre-incubation time point (0, 5, 10, 20, and 30 minutes) 20 μL was removed and placed in a second 96 well plate on ice. After all pre-incubation time points were collected 180 uL of additional human microsome liver preparation containing the appropriate CYP specific substrate at its Km concentration listed in Table 11 plus NADPH, was added to each time point. The samples were incubated for an additional 10 minutes in a 37° C. shaking water bath and then quenched with 75:25 acetonitrile (ACN):water containing the appropriate internal standards listed in Table 11. After brief mixing, the plate was centrifuged and the supernatant removed for analysis by LC/MS/MS (API 4000 Qtrap) for the formation of 6-hydroxy-testosterone (CYP3A4), 4-hydroxy-mephenyloin (CYP2C19), or 6-hydroxy-taxol (CYP2C8). […] Consistent with Example 5, Compound I-1 did inhibit CYP2C8-mediated metabolite formation at 10 μM, but not in a time dependent manner.

[5] = biological target: CYP2C8 (Homo sapiens (Human), UniProt P10632); assay: Time dependant inhibition in human liver microsomes, CYP2C8; assay type: in vitro ADME
Chain of CYP2C8 (P10632 whole entry): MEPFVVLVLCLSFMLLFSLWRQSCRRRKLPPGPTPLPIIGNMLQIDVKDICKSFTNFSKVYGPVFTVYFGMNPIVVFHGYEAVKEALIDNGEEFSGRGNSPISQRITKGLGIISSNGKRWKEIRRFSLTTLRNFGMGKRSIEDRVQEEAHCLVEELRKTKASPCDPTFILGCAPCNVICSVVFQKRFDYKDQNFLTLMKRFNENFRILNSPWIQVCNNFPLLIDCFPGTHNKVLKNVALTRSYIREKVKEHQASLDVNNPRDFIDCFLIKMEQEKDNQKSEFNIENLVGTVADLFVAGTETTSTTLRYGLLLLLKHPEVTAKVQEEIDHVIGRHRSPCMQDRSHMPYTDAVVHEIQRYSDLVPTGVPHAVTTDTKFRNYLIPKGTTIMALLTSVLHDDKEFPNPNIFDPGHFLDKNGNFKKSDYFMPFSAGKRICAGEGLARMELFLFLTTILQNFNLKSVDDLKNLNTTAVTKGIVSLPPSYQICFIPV
Protocol: as §1

[6] = biological target: T1, CYP2C19; assay: Inhibitory constant KI in human liver microsomes, CYP2C19; assay type: in vitro ADME; conditions: for Ki: CYP2C19, global non-linear regression
Protocol: (§2) A 2 mM stock of Compound I-1 was prepared in acetonitrile (ACN) and serially diluted 2-fold from 2000 μM to 15.63 μM in ACN. […] Individual human liver microsome preparations containing the substrate were then incubated with Compound I-1 (final concentration range 40 μM to 0.31 μM of Compound I-1) for a final incubation concentration of 0.5 mg/mL microsome, 75 mM KPO4, 6.5 mM MgCl2, 1 mM NADPH and 2% acetonitrile (ACN). The samples were incubated in a 37° C. shaking water bath for 20 minutes then quenched with ACN:water (75:25) containing internal standards propranolol at 0.3 ng/mL and cortisone at 0.3 ng/mL. After brief mixing, the plate was centrifuged and the supernate removed for analysis by LC/MS/MS (API 4000 Qtrap) for formation of 6-hydroxy-testosterone (CYP3A4), 4-hydroxy-mephenyloin (CYP2C19) or hydroxy-taxol (CYP2C8). The data was analyzed using global non-linear regression software (GraphPad Prism) and the overall fit of the data (R^2) was used to determine if Compound I-1 was a competitive, non-competitive, or uncompetitive inhibitor. In addition the data was plotted as a Lineweaver-Burke graph (1/V versus 1/S, where V is the […] and S is the substrate concentration) for each inhibitor concentration. Based on the location of convergence (competitive and non-competitive) or non convergence (uncompetitive) of the plots at each inhibitor concentration, the type of inhibition was determined.
(§3) Global non-linear regression allows analysis of all the individual inhibitor curves simultaneously and determines the best fit value for shared parameters between the data sets, in this case KI (or KI′). The results of the global nonlinear analysis of Compound I-1 inhibition of the CYP450 isoforms 3A4, 2C19 and 2C8 are shown in Table 12.

[7] = biological target: CYP3A4 (Homo sapiens (Human), UniProt P08684); assay: Inhibitory constant KI in human liver microsomes, CYP3A4; assay type: in vitro ADME; conditions: CYP3A4, global non-linear regression
Chain of CYP3A4 (P08684 whole entry): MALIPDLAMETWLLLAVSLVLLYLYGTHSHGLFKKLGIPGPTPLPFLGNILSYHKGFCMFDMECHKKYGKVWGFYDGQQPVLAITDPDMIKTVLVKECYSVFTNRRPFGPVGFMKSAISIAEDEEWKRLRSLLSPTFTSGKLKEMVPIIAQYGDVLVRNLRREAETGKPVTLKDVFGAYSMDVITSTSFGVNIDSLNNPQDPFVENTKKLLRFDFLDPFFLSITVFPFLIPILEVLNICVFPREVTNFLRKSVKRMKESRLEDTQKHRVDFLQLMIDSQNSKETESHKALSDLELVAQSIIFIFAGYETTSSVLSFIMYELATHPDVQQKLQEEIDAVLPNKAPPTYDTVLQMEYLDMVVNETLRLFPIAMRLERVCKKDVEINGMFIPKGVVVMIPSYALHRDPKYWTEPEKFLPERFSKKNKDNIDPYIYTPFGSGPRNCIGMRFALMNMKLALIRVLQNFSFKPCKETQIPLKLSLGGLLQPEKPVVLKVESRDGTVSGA
Protocol: as §2, §3

[8] = test system: MDR1-MDCK cells; assay: Bidirectional MDR1-MDCK permeability, Compound I-1 as a substrate; conditions: 5 μM, Surf.
Protocol: (§4) MDR1-MDCK cells were grown to confluence for 5-10 days on 1 μm filters in 24-well plate. Aliquots of DMSO solute stocks were diluted into Hank's balanced salt solution (HBSS) pH 7.4 containing 25 mM HEPES+−0.05% PS80 to give 0.5, 1.5 or 5.0 μM solute concentrations. Final concentrations of DMSO in the assayed samples ranged from 0.005% for the 0.5 μM concentration to 0.05% for the 5 μM concentration. […] The solute containing donor solutions were transferred to either the apical or basolateral chamber of the permeability diffusion apparatus. Receiver solutions consisted of Hank's balanced salt solution (HBSS) pH 7.4 containing 25 mM HEPES+0.05% PS80. The entire receiver solution was removed at 20 minute intervals and manually replaced with fresh buffer. The concentration of transported solute during each sampling interval was determined by HPLC/UV/MS. The standard curve was produced from serial dilutions of the dosing solution. D0 was a 50 μl aliquot of dosing solution from the donor well diluted with 450 μl of HBSS. The standard curve was produced from serial dilutions of the dosing solution (1:10, 1:25, 1:50, 1:100, 1:500 and 1:1000). Permeability coefficients were calculated for each sampling interval using the following equation:
(§5) [formula] Where VD=volume of donor (0.4 ml for Ap_Bl flux and 1.0 ml for Bl_Ap flux), A=surface area of the filter on which the monolayer was grown (0.31 cm2), MD(0)=mass in the donor at the beginning of the ith sampling interval, MR (t)=mass in the receiver at time t, and _t is the experimental interval (20 minutes). The apparent permeability, Papp, is then calculated as the average:
(§6) The average and standard deviation from the intervals is reported. Mass balance in the system was ascertained by comparing the sum of total transported solute and remaining donor solute with the starting mass of solute and is expressed as a percentage of donor solute at time zero. […] At the termination of the experiment, the cell monolayers are stored in the cold until the data is analyzed. After analysis, if mass balance falls below 70% in a given experiment, those monolayers are retrieved and extracted with acetonitrile. After separation of cellular debris, the extract is analyzed for recoverable solute of interest. […] All determinations were performed in duplicate.

[9] = test system: P-glycoprotein (MDR1); assay: as above; conditions: dog, Surf.
Protocol: as §4, §5, §6

[10] = read-out: Best Fit KI, Competitive
[11] = read-out: Best Fit KI, Non-competitive
[12] = read-out: Best Fit KI′, Uncompetitive

CC(C)(CO)c1cc(NC(=O)Nc2ccc(-c3cn4c(n3)sc3cc(OCCN5CCOCC5)ccc34)cc2)no1 [Compound I-1, 1-[5-(2-hydroxy-1,1-dimethyl-ethyl)-isoxazol-3-yl]-3-{4-[7-(2-morpholin-4-yl-ethoxy)-benzo[d]imidazo[2,1-b]thiazol-2-yl]-phenyl}-urea]
IC50 [1]: 15.5 µM | EC50 [2]: 0.002 µM | Kd [3]: 0.0055 µM | Time dependant inhibition [4]: not a time dependant inhibitor | Inhibition of CYP2C8-mediated metabolite formation ([5]; 10 μM): did inhibit | Time dependant inhibition ([5]; CYP2C8, 10 μM, pre-incubation 0-30 minutes): not a time dependant inhibitor | Type of inhibition ([6]; CYP2C19): non-competitive inhibition; also recorded: weak non-competitive inhibitor | Ki [6, 10]: 1.7 µM | Ki [6, 11]: 10.4 µM | Ki [6, 12]: 7.4 µM | Ki [7, 10]: 13.1 µM | Ki [7, 11]: 48.9 µM | Ki [7, 12]: 36 µM | Assymetry Index [8]: 1.7 | PeAP→BL [8]: 2.81 ×10⁻⁶ cm/s | PeBL→AP [8]: 6.31 ×10⁻⁶ cm/s and 4.67 ×10⁻⁶ cm/s | efflux ratio at 5 μM ([9]; MDCK-MDR1, pH 7.4, Assymetry Index): 1.2 | Papp A→B at 5 μM ([9]; MDCK-MDR1, pH 7.4, PeAP→BL): 5.1 ×10⁻⁶ cm/s
